The source of these data is patent publication US8022069B2, “Substituted piperidines as renin inhibitors” (Novartis AG, priority 2008, dated 2011).

The structures appear in SMILES notation.

This assay addresses T1, renin (Homo sapiens, UniProt P00797).
T1 construct: This test measures the formation of angiotensin I in human plasma; from tissue; host or cells: human plasma
T1 sequence (P00797 67-406): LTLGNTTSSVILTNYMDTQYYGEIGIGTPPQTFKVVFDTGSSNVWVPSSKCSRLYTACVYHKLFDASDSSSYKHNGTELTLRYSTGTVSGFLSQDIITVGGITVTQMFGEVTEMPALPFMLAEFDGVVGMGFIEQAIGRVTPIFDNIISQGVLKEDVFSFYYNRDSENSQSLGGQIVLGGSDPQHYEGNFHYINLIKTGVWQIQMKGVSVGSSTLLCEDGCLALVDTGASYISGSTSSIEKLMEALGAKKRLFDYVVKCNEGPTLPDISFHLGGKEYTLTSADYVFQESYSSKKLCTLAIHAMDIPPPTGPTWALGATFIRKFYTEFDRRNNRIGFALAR
Description: formation of angiotensin I in human plasma, radioimmunoassay (Nussberger et al.). It is filed as biochemical. To be noted: values in the range of about, read-out: IC50, inhibition of the formation of angiotensin I. As for the experimental part:
The effect of renin inhibitors is detected inter alia experimentally by means of in vitro tests where the reduction in the formation of angiotensin I is measured in various systems (human plasma, purified human renin together with synthetic or natural renin substrate). The following in vitro test of Nussberger et al. (1987) J. Cardiovascular Pharmacol., Vol. 9, pp. 39-44, is used inter alia. This test measures the formation of angiotensin I in human plasma. The amount of angiotensin I formed is determined in a subsequent radioimmunoassay. The effect of inhibitors on the formation of angiotensin I is tested in this system by adding various concentrations of these substances. The IC50 is defined as the concentration of the particular inhibitor which reduces the formation of angiotensin I by 50%. The compounds of the present invention show inhibitory effects in the in vitro systems at minimal concentrations of about 10^−6 mol/l to about 10^−10 mol/l.

With `CCO[C@H](C)COCc1ccc([C@H]2C[C@@H](CC(C)(C)C(=O)NC)NC[C@@H]2OCc2ccc3c(c2)N(CCCOC)CCO3)cc1` [Example 5, 3-{(2S,4R,5R)-4-[4-((R)-2-Ethoxy-propoxymethyl)-phenyl]-5-[4-(3-methoxy-propyl) -3,4-dihydro-2H-benzo[1,4]oxazin-6-ylmethoxy]-piperidin-2-yl}-2,2,N-trimethyl-propionamide], the IC50 (in general, the concentration that gives 50% inhibition) lay in the range of 0.1 to 10 nM.

`CCO[C@H](C)COCc1ccc([C@H]2C[C@H](CCn3cnnc3)NC[C@@H]2OCc2ccc3c(c2)N(CCCOC)CCO3)cc1` [Example 9, 6-[(3R,4R,6R)-4-[4-((R)-2-Ethoxy-propoxymethyl)-phenyl]-6-(2-[1,2,4]triazol-4-yl-ethyl) -piperidin-3-yloxymethyl]-4-(3-methoxy-propyl)-3,4-dihydro-2H-benzo[1,4]oxazine]: the IC50 was 0.1 to 10 nM.
